One compound from US10550143B2, “C,O-spiro aryl glycoside compounds, preparation therefor and use thereof” (SHANGHAI INSTITUTE OF MATERIA MEDICA, CHINESE ACADEMY OF …, priority 2015, dated 2020) can be followed below.

What is called inhibition is the share of the control response that was lost under treatment. By IC50 is commonly meant the concentration needed to halve the response being measured.

This test has as its target T1, human sodium-glucose cotransporter 2 (SGLT2) (Homo sapiens, UniProt P31639).
T1 construct: expressed in transfected cells; host or cells: NIH3T3 (mouse fibroblast) cells expressing hSGLT2
T1 sequence (P31639 1-672): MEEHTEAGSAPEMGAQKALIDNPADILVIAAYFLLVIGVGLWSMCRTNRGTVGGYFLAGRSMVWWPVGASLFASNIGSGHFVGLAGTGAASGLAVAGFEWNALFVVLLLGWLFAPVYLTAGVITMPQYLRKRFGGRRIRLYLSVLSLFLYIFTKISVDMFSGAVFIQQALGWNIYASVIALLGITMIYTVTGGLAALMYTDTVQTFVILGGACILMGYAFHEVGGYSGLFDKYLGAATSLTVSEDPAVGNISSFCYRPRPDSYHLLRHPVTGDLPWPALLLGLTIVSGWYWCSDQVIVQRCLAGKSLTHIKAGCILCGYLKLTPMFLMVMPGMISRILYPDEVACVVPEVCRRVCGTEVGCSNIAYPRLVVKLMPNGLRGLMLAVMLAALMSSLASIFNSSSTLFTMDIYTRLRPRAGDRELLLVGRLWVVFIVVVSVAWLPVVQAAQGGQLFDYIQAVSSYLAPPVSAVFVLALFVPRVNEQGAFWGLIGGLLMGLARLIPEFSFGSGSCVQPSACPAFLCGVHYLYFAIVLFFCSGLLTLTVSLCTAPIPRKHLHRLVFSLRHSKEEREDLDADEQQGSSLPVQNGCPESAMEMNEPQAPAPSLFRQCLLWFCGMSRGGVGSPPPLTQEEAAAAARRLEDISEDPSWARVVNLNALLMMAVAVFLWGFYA
Description: In vitro SGLT2 inhibition, methyl-α-D-[U-14C]glucopyranoside uptake in NIH3T3-hSGLT2 cells. The class given is cell-based. The procedure, abridged: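 NIH3T3-hSGLT2 cells (40000/well, gelatin-coated, 2 mM sodium butyrate the next day) were preincubated 30 min in KRH-Na+, then given compound plus uptake buffer with methyl-α-D-[U-14C]glucopyranoside and ⅙ mM methyl-α-D-glucopyranoside. Uptake was read by scintillation counting, with KRH-acetylcholine as background.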

Consider `CCc1ccc(Cc2cc3c(cc2Cl)CO[C@]32O[C@H](C)[C@@H](O)[C@H](O)[C@H]2O)s1` [Example A28, (1S,3′R,4′S,5′S,6′R)-6′-methyl-6-((5-ethylthienyl)-2-methyl)-5-chloro-3′,4′,5′,6′-tetrahydro-3H-spiro[isobenzofuran-1,2′-pyran]-3′,4′,5′-triol], for which the Selectivity (IC50 SGLT1/IC50 SGLT2) was 1450. In addition, under “SGLT2, 10 nM, read-out: % Inhibition rate ± SD 10 nM”, the inhibition at 0.01 µM amounted to 67 ± 4.9%. Also, the inhibition at 0.1 µM (SGLT2, 100 nM, read-out: % Inhibition rate ± SD 100 nM) is 86.1 ± 2.4%. Also, the IC50 (read-out: IC50 ± SD SGLT2) stood at 1.42 ± 0.2 nM.
